Where a SMILES comes first, the peptide text is derived from it. Bridges are numbered along the chain shown (N, C = ends).
Assays:
[1] = test system: primary fibroblasts; conditions: peptide combined with prodigiosin
[2] = test system: human tumor cell lines (A549, A375, PC-3, U87); conditions: peptide combined with prodigiosin
[3] = test system: human colon cancer Ls174T cell line implanted in NIH athymic mice; assay: Ls174T colon cancer tumor model in athymic mice; format: in vivo; conditions: FIG. 19B
Method: The Ls174T colon cancer tumor model in athymic mice was used to evaluate the potential effect of the linear Gly255-Ser274 segment (peptide N06P87), compared to the CIGB370r polypeptide, on human tumor models. Human tumor cells were administered by subcutaneous route, and the molecules of interest or the vehicle were administered by intratumor route (100 μL). After 13 days, when tumors were implanted and palpable, administration schedules started for the molecules of interest (FIG. 8A). The peptide N06P87 was administered in down-scaled doses: two administrations of 600 μM each every 48 h, followed by 4 administrations of 330 μM each every 48 h, and lastly 4 administrations of 90 μM each every 72 h. The CIGB370r peptide was administered weekly for 4 weeks.
The effects of the linear segment Gly255-Ser274 (peptide N06P87) and two other model cyclic peptides of the present invention were compared to the effect of the CIGB370r polypeptide in the Ls174T human colon cancer model in athymic NIH mice, with the dose and schedule shown in FIG. 19. After 13 days, once the tumors were implanted and palpable, biomolecules began to be administered (FIG. 19 A). The peptides were administered in down-scaled doses: 2 administrations of 600 μM every 48 h, followed by 4 administrations of 330 μM each every 48 h, and 4 final 90 μM administrations every 72 h. […]

[4] = test system: TC-1 tumor; assay: TC-1 subcutaneous tumor model in C57BL/6 mice; format: in vivo; conditions: 80 μM
Method: Six-to-eight weeks-old, C57BL/6 female mice of 22 g of weight were supplied by the National Center for Laboratory Animal Production (CENPALAB, Havana, Cuba) and housed under pathogen-free conditions at the Bioterium of the Center for Genetic Engineering and Biotechnology (CIGB). Experiments were carried out in agreement with regulations for proper handling and care of laboratory animals. Tumor volume was measured on each case (estimated by the formula: volume=a^2×(b/2), where a is the width and b is the length of the tumor) and animal survival was evaluated.
Survival was compared between groups by the Logrank test. The statistic parameters were obtained with the aid of the GraphPad Prism 4.0 software (GraphPad Software, San Diego, Calif., USA).
C57BL/6 mice were injected in the right flank by subcutaneous route (s.c.) with 50 000 TC-1 cells. When tumors were detectable, mice were randomized into treatment groups to evaluate the treatment with the peptides subject of study, to evaluate them by different administration routes. Tumor-bearing animals received 6 administrations in alternate days, with 80 μM of the subject peptide, solely received the vehicle as control. Five mice were used for each group. Animals were housed under pathogen-free conditions, and procedures were conducted in agreement with good practices for laboratory animal handling and care.

[5] = test system: HEp-2 (larynx carcinoma); assay: SRB cytotoxicity on HEp-2 cells; format: cell-based, human
Method: (§1) Negative control cells were cultured on a volume of vehicle equal to that of the experimental samples. An “x-y” curve (dose-response) was established with the percent of surviving cells, compared in respect to the negative control cells, and the following parameters were estimated: 50% growth inhibition (GI50); Total growth inhibition (TGI); and the lethal concentration 50 (LC50), that is the concentration causing the 50% of cell death (Boyd M R, Paull K D, and Rubinstein L R (1992) “Data display and analysis strategies for the NCI Disease Oriented In-Vitro Antitumor Drug Screen, in Cytotoxic Anticancer Drugs: Models and Concept for Drug Discovery and Development” (Baleriote F A, Corbett T H and Baker L H eds) pp 11-34, Kluwer Academia Publishers, Boston).
(§2) Were considered as cytotoxic peptides all those peptides being able of inhibiting 50% of the cellular proliferation, in a dose-dependent manner, and showing GI50 values below 100 μM, at least in one of the cell lines studied. The human tumor cell lines used were: HEp-2 (larynx carcinoma), A549 (lung epithelial adenocarcinoma), M14 (melanoma), Colo 205 (colon adenocarcinoma), Ls174T (colon adenocarcinoma), LnCAP (prostate carcinoma), PC-3 (prostate carcinoma) and H 125 (non-small cell lung adenocarcinoma). […]

[6] = test system: human tumor cells; assay: Cytotoxic activity screening of peptide library on human tumor cell lines, SRB method; format: cell-based
[7] = test system: Ls174T (colon adenocarcinoma); assay: SRB cytotoxicity on Ls174T cells; format: cell-based, human
Method: as §1, §2

[8] = test system: Colo 205 (colon adenocarcinoma); assay: SRB cytotoxicity on Colo 205 cells; format: cell-based, human
Method: as §1, §2

[9] = test system: A549 (lung epithelial adenocarcinoma); assay: SRB cytotoxicity on A549 cells; format: cell-based, human
Method: as §1, §2

SMILES	decrease of the cytotoxic activity of prodigiosin on primary fibroblasts [1]	GI50 values [2]	effect on the cytotoxic activity of prodigiosin [2]	T/C values related to the mean tumor volume [3]	survival by intratumoral and intraperitoneal routes ([4]; i.t. or i.p., FIG. 17)	survival ([4]; intratumoral route)	GI50 [5]	cytotoxic / biological activity in vitro on tumor cells ([6]; peptide library screening)	change of cytotoxic activity by parenteral formulation buffers, pH and additives ([6]; tumor cells from diverse histological origins)	GI50 [7]	GI50 [8]	GI50 [9]
CC(C)C[C@@H]1NC(=O)[C@H](Cc2ccccc2)NC(=O)[C@H](CC(=O)O)NC(=O)[C@H](CCCNC(=N)N)NC(=O)CNC(=O)[C@H]([C@@H](C)O)NC(=O)[C@H](CC(N)=O)NC(=O)[C@H](CO)NC(=O)[C@H](CC(N)=O)NC(=O)[C@@H](NC(=O)CNC(=O)[C@H](Cc2ccc(O)cc2)NC(=O)[C@@H](NC(=O)[C@@H](NC(=O)[C@H](CC(=O)O)NC(=O)CN)[C@@H](C)O)C(C)C)CSSC[C@@H](C(N)=O)NC(=O)CNC(=O)[C@H]([C@@H](C)O)NC(=O)[C@H](CO)NC1=O [Peptide J08P48s-s] (H-GDTVYGCNSNTGRDFLSTGC-NH2; disulfide 7-20)	at least one order of magnitude	nm range	enhanced	35%	reproduce the effects observed in this model for the CIGB370r polypeptide	highest survival block						
CC(C)C[C@H](NC(=O)[C@H](Cc1ccccc1)NC(=O)[C@H](CC(=O)O)NC(=O)[C@H](CCCNC(=N)N)NC(=O)CNC(=O)[C@@H](NC(=O)[C@H](CC(N)=O)NC(=O)[C@H](CO)NC(=O)[C@H](CC(N)=O)NC(=O)[C@H](Cc1ccccc1)NC(=O)CNC(=O)[C@H](Cc1ccc(O)cc1)NC(=O)[C@@H](NC(=O)[C@@H](NC(=O)[C@H](CC(=O)O)NC(=O)CN)[C@@H](C)O)C(C)C)[C@@H](C)O)C(=O)N[C@@H](CO)C(=O)N[C@H](C(=O)N[C@H](C(=O)N[C@@H](CO)C(N)=O)[C@@H](C)O)[C@@H](C)O [Peptide N06P87] (H-GDTVYGFNSNTGRDFLSTTS-NH2)							< 100 µM	active	no increased on its cytotoxic activity	< 100 µM	< 100 µM	< 100 µM

Source: patent US9375459B2, “Cyclic peptides with an anti-neoplasic and anti-angiogenic activity” (priority 2011, dated 2016)
